Test results reported in ChEMBL document CHEMBL1155500, “The metabolites of mangrove endophytic fungus Zh6-B1 from the South China Sea” (2010).

Experiment: Cytotoxicity against human KV/MDR cells at 100 uM after 48 hrs by MTT assay
Format: functional
Conditions: read-out: GI

SMILES | inhibition of growth at 100 µM
C[C@@H]1C[C@H](O)CCCc2cc(O)cc(O)c2C(=O)O1 | 42.4%
C[C@@H]1C[C@@H](O)CCCc2cc(O)cc(O)c2C(=O)O1 | 41.6%
